Experimental data reported in PubChem BioAssay (NCI).
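Method: 48-hour compound exposure of cells in 96-well plates, five concentrations, linear interpolation of endpoints. The concentration for full growth arrest is given as TGI.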

Columns and labels:
Experiment in all cases: growth of human tumour cells (NCI), 48 h
[1] = system: M14 melanoma
[2] = system: SR leukemia
[3] = system: RXF 393 renal
[4] = system: HL-60(TB) leukemia
[5] = system: KM12 colon
[6] = system: XF 498 CNS
[7] = system: HCC-2998 colon
[8] = system: HCT-116 colon
[9] = system: K-562 leukemia
[10] = system: OVCAR-8 ovarian
[11] = system: CCRF-CEM leukemia
[12] = system: LXFL 529 NSCLC
[13] = system: SK-MEL-5 melanoma
[14] = system: SW-620 colon
[15] = system: NCI-H460 lung
[16] = system: COLO 205 colon
[17] = system: M19-MEL melanoma
[18] = system: ACHN renal
[19] = system: DMS 273 small cell lung
[20] = system: MALME-3M melanoma
[21] = system: 786-0 renal
[22] = system: CAKI-1 renal
[23] = system: NCI-H23 lung
[24] = system: RXF-631 renal
[25] = system: OVCAR-5 ovarian
[26] = system: KM20L2 colon
[27] = system: LOX IMVI melanoma
[28] = system: SNB-75 CNS
[29] = system: A498 renal
[30] = system: U251 CNS
[31] = system: SN12C renal
[32] = system: HOP-62 NSCLC
[33] = system: DMS 114 small cell lung
[34] = system: SK-MEL-28 melanoma
[35] = system: HCT-15 colon
[36] = system: SNB-19 CNS
[37] = system: NCI-H226 lung
[38] = system: SF-539 CNS
[39] = system: NCI-H522 lung
[40] = system: EKVX NSCLC
[41] = system: HT29 colon
[42] = system: TK-10 renal
[43] = system: HOP-92 NSCLC
[44] = system: OVCAR-4 ovarian
[45] = system: MOLT-4 leukemia
[46] = system: UACC-62 melanoma
[47] = system: A549 NSCLC
[48] = system: SK-MEL-2 melanoma
[49] = system: DLD-1 colon
[50] = system: SK-OV-3 ovarian
[51] = system: IGROV1 ovarian
[52] = system: HOP-18 NSCLC
[53] = system: RPMI-8226 leukemia
[54] = system: OVCAR-3 ovarian
[55] = system: SF-268 CNS
[56] = system: SNB-78 CNS
[57] = system: UO-31 renal
[58] = system: SF-295 CNS
[59] = system: UACC-257 melanoma

`CCCCCCCCCCCCC(CC)CCCCC(=O)O` (stereo not given) was tested, and the TGI [1] was > 100 µM, the TGI [2] was > 100 µM and the TGI [3] was > 86.8 µM. For the same compound, the TGI [4] was > 90.4 µM, the TGI [5] was > 100 µM and the TGI [6] was > 100 µM. The TGI [7] was > 100 µM, the TGI [8] was > 100 µM and the TGI [9] was > 100 µM. For the same compound, the TGI [10] was > 100 µM, the TGI [11] was 67.6 µM and the TGI [12] was > 100 µM. For the same compound, the TGI [13] was > 100 µM, the TGI [14] was > 100 µM and the TGI [15] was > 100 µM. For the same compound, the TGI [16] was > 100 µM, the TGI [17] was > 100 µM and the TGI [18] was > 100 µM. The TGI [19] was > 100 µM, the TGI [20] was > 100 µM and the TGI [21] was > 100 µM. For the same compound, the TGI [22] was > 100 µM, the TGI [23] was > 100 µM and the TGI [24] was > 100 µM. The TGI [25] was > 100 µM, the TGI [26] was > 100 µM and the TGI [27] was > 100 µM. The TGI [28] was > 100 µM, the TGI [29] was > 100 µM and the TGI [30] was > 67.8 µM. For the same compound, the TGI [31] was > 100 µM, the TGI [32] was > 100 µM and the TGI [33] was > 100 µM. The TGI [34] was > 100 µM, the TGI [35] was > 100 µM and the TGI [36] was > 100 µM. The TGI [37] was > 100 µM, the TGI [38] was > 59.2 µM and the TGI [39] was > 100 µM. The TGI [40] was > 100 µM, the TGI [41] was > 100 µM and the TGI [42] was > 100 µM. For the same compound, the TGI [43] was > 100 µM, the TGI [44] was > 100 µM and the TGI [45] was 69.7 µM. For the same compound, the TGI [46] was > 100 µM, the TGI [47] was > 100 µM and the TGI [48] was > 100 µM. The TGI [49] was > 100 µM, the TGI [50] was > 100 µM and the TGI [51] was > 100 µM. The TGI [52] was > 100 µM, the TGI [53] was > 100 µM and the TGI [54] was > 100 µM. For the same compound, the TGI [55] was > 100 µM, the TGI [56] was > 100 µM and the TGI [57] was > 100 µM. The TGI [58] was > 100 µM and the TGI [59] was > 100 µM.
In the case of `O=C(O)C(CO)N=Cc1nc(-c2ccccc2)oc1O` (stereo not given), the TGI [1] is reported as > 100 µM, the TGI [3] is reported as > 100 µM and the TGI [4] is reported as > 100 µM. For the same compound, the TGI [5] was > 100 µM, the TGI [6] was > 100 µM and the TGI [7] was > 100 µM. The TGI [8] was > 100 µM, the TGI [9] was > 100 µM and the TGI [10] was > 100 µM. The TGI [11] was > 100 µM, the TGI [12] was > 100 µM and the TGI [13] was > 100 µM. The TGI [14] was > 100 µM, the TGI [15] was > 100 µM and the TGI [16] was > 100 µM. The TGI [17] was > 100 µM, the TGI [18] was > 100 µM and the TGI [19] was > 100 µM. For the same compound, the TGI [20] was > 100 µM, the TGI [21] was > 100 µM and the TGI [22] was > 100 µM. For the same compound, the TGI [23] was > 100 µM, the TGI [24] was > 100 µM and the TGI [25] was > 100 µM. The TGI [26] was > 100 µM, the TGI [27] was > 100 µM and the TGI [28] was > 100 µM. For the same compound, the TGI [29] was > 100 µM, the TGI [30] was > 100 µM and the TGI [32] was > 100 µM. The TGI [33] was > 100 µM, the TGI [34] was > 100 µM and the TGI [35] was > 100 µM. For the same compound, the TGI [36] was > 100 µM, the TGI [37] was > 100 µM and the TGI [38] was > 100 µM. For the same compound, the TGI [39] was > 100 µM, the TGI [40] was > 100 µM and the TGI [41] was > 100 µM. For the same compound, the TGI [42] was > 100 µM, the TGI [43] was > 100 µM and the TGI [44] was > 100 µM. The TGI [46] was > 100 µM, the TGI [47] was > 100 µM and the TGI [48] was > 100 µM. The TGI [49] was > 100 µM, the TGI [50] was > 100 µM and the TGI [51] was > 100 µM. For the same compound, the TGI [52] was > 100 µM, the TGI [53] was > 100 µM and the TGI [54] was > 100 µM. For the same compound, the TGI [55] was > 100 µM, the TGI [56] was > 100 µM and the TGI [57] was > 100 µM. For the same compound, the TGI [58] was > 100 µM and the TGI [59] was > 100 µM.
